Laboratory results reported in article PMC11358443, “Polymodal K^+ channel modulation contributes to dual analgesic and anti-inflammatory actions of traditional botanical medicines” (Communications Biology, 2024).

What was measured:
TREK-1 = settings: read-out: TREK-1 activation EC50; cited from earlier work
Kv7.5 [1] = molecular target: T1, Kv7.5 (Homo sapiens, UniProt Q9NR82); set-up: method as in PMID 35997997; settings: cited from earlier work
Kv1.1 [2] = molecular target: T2, Kv1.1 (Homo sapiens, UniProt Q09470); set-up: method as in PMID 33093824; settings: cited from earlier work
T2 sequence (Q09470 whole entry): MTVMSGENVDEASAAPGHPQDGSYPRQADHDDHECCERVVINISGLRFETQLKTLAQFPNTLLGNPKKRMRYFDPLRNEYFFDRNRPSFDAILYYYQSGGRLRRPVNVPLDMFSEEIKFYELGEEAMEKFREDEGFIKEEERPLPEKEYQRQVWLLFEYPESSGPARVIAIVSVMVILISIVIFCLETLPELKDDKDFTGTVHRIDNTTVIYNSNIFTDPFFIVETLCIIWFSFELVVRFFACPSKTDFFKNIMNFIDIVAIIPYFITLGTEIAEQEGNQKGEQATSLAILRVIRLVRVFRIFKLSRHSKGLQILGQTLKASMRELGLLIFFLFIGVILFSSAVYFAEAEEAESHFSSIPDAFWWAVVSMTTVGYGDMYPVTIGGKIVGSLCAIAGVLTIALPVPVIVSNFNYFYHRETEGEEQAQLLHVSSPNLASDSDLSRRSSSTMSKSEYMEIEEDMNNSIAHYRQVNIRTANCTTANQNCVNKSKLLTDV

C57BL/6 mice = tested on: C57BL/6 mice; set-up: method as in Abbott et al., 2021 Front. Physiol. 12:777057; settings: 5 mg/kg morphine; ref Abbott et al., 2021 Front. Physiol. 12:777057; cited from earlier work
Kv1.1 [3] = molecular target: T2, Kv1.1; experiment: TEVC electrophysiology, Xenopus oocytes expressing Kv1.1; assay type: cell-based; settings: 100 µM; for Slope / V0.5 Normalized tail current / V0.5 non-normalized tail current: paired control in same table
Method: (§1) We generated human potassium channel cRNA transcripts with the mMessage mMachine kit (Thermo Fisher Scientific, Waltham, MA, USA) according to manufacturer’s instructions, after vector linearization, from cDNA sub-cloned into expression vectors (pTLNx, pXOOM and pMAX). We injected Xenopus laevis oocytes (Xenoocyte, Dexter, MI, USA) with the channel cRNAs (0.5–10 ng) and incubated the oocytes at 16 °C for 1–4 days prior to electrophysiological recording.
(§2) We performed TEVC at 20–23 °C with an OC-725C amplifier (Warner Instruments, Hamden, CT, USA) and pClamp10 software. Chemicals for recording and oocyte storage solutions were from Sigma-Aldrich (St. Louis, MO). Bath solution contained (in mM): 96 NaCl, 4 KCl, 1 MgCl2, 1 CaCl2, 10 HEPES (pH 7.6). Pipettes were 1–2 MΩ resistance when filled with 3 M KCl. We recorded currents in response to voltage pulses between −120 mV or −80 mV and +40 mV at 10 mV intervals from a holding potential of −80 mV, to yield current–voltage relationships and examine activation kinetics. We recorded and analyzed data using Clampfit (Molecular Devices, Sunnyvale, CA, USA) and Graphpad Prism software (GraphPad, San Diego, CA, USA), stating values as mean ± SEM. We calculated the voltage dependence of activation (V0.5) by measuring tail currents at a voltage pulse of −30 mV (Kv7) or −50 mV (Kv1), then fitted the tail current/voltage relationship with a single Boltzmann function:1 g=(A1−A2)/{1+exp[V1/2−V/Vs]}y+A2 where g is the normalized tail conductance, A1 is the initial value at −∞, A2 is the final value at +∞, V1/2 is the half-maximal voltage of activation and Vs the slope factor. We fitted activation and deactivation kinetics with single exponential functions.

Kv7.5 [4] = molecular target: T1, Kv7.5; experiment: TEVC electrophysiology, Xenopus oocytes expressing Kv7.5; assay type: cell-based; settings: 100 µM
Method: as §1, §2

T1 sequence (Q9NR82 whole entry): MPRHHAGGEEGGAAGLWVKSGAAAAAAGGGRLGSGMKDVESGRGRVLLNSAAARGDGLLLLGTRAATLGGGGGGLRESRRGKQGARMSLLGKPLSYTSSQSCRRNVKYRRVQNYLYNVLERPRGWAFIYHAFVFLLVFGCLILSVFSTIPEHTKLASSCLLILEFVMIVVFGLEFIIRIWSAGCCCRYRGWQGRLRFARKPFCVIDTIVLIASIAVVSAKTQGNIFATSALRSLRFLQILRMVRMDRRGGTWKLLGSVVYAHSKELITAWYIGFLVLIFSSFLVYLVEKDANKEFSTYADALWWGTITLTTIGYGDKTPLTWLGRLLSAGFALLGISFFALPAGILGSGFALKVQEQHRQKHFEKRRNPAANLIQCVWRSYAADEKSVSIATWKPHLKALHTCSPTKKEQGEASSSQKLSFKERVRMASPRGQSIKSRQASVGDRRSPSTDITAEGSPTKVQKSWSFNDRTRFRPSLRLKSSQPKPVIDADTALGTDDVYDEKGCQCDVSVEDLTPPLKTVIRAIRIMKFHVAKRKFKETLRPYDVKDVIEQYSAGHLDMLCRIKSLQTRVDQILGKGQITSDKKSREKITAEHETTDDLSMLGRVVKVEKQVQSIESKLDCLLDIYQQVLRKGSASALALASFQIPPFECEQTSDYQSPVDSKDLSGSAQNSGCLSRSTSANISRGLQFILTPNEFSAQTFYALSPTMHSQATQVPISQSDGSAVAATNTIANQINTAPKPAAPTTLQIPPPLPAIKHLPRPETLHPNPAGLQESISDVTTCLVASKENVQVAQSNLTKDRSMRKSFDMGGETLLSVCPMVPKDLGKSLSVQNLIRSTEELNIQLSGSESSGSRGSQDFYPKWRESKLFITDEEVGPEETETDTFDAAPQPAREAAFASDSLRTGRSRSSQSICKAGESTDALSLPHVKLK

SMILES: Cc1cc(Cl)ccc1OCCNC(=O)c1cccs1 [ML402]
- EC50 (TREK-1): 14 µM

SMILES: c1ccc(-c2nnn[nH]2)c(Nc2cccc3c2CCCC3)c1 [BL-1249, (5,6,7,8-tetrahydro-naphthalen-1-yl)-[2-(1H-tetrazol-5-yl)-phenyl]-amine]
- EC50 (TREK-1): 1.5 µM

SMILES: O=C(O)c1cc(O)c(O)c(O)c1 [gallic acid]
- activity on Kv7.5 compared with tannic acid (Kv7.5 [1]): active but less efficacious
- effect on voltage dependence of Kv1.1 (Kv1.1 [2]): negative-shift

SMILES: CN1CC[C@]23c4c5ccc(O)c4O[C@H]2[C@@H](O)C=C[C@H]3[C@H]1C5 [morphine]
- attenuation of early phase paw-licking (C57BL/6 mice): 40%

SMILES: Oc1cc(O)c2c(c1)OC(c1ccc(O)c(O)c1)C(O)C2 (single isomer, unassigned; (+)) [catechin hydrate, (+)-Catechin hydrate]
- Slope (Kv1.1 [3]): 6.10 ± 0.15 mV
- V0.5 Normalized tail current (Kv1.1 [3]): -37.70 ± 0.45 mV
- V0.5 non-normalized tail current (Kv1.1 [3]): -39.60 ± 0.63 mV

SMILES: CS(=O)(=O)Nc1ccc(C(=O)NCc2ccc(Cl)cc2Cl)cc1 [ML335]
- EC50 (TREK-1): 14 µM

SMILES: O=C(OC[C@H]1OC(O)[C@@](O)(COC(=O)c2cc(O)c(O)c(O)c2)[C@@H]1O)c1cc(O)c(O)c(O)c1 (stereo partly drawn) [hamamelitannin]
- activity on Kv7.5 expressed in oocytes (Kv7.5 [4]): inactive
- Slope (Kv7.5 [4]; control 7.66 ± 0.33): 7.57 ± 0.17 mV
- V0.5 Normalized tail current (Kv7.5 [4]; control -48.15 ± 1.14): -47.96 ± 0.99 mV
- V0.5 non-normalized tail current (Kv7.5 [4]; control -50.27 ± 1.37): -49.87 ± 1.44 mV
- effect on EM of oocytes expressing Kv1.1 (Kv1.1 [3]): hyperpolarized the EM
- effect on Kv1.1 (Kv1.1 [3]): negative-shifted the voltage dependence of Kv1.1 activation
- Slope (Kv1.1 [3]): 6.51 ± 0.73 mV
- V0.5 Normalized tail current (Kv1.1 [3]): -35.11 ± 1.66 mV
- V0.5 non-normalized tail current (Kv1.1 [3]): -36.25 ± 1.77 mV
